Assay results reported in patent US8969400B2, “Pharmaceutical compositions of 5-hydroxytryptophan and serotonin-enhancing compound” (Duke University, priority 2007, dated 2015).

Tests used:
Assay type in all cases: in vivo, mouse
NMRI mice = experiment: Tail suspension test in NMRI mice; details: single drug i.p. 30 min prior to test, 6 min test
Excerpt: Drug candidates can be screened for antidepressant-like activity by using animal models. In the tail suspension test the mouse is suspended by its tail. The mouse will initially move and struggle but will with time become increasingly immobile. Pretreatment with a clinically effective antidepressant decreases the time spent immobile. This includes selective serotonin re-uptake inhibitors (SSRIs) and drugs inhibiting the noradrenaline reuptake mechanism, as well as some putative antidepressants with non-monoamine pharmacology. […] In animal models of depression, including the tail suspension test, mouse strains differ considerably in their responsiveness to antidepressants. This may parallel the clinical situation where a considerable subset of patients is refractory to pharmacotherapy. […] In our laboratory mice of the NMRI strain consistently fails to repond to SSRIs in the tail suspension test of antidepressant activity, while C57 mice show a strong response (FIG. 1). Male NMRI and C57Bl/6j mice (Taconic Europe, St. […]) weighing 25-35 g were housed and habituated for at least 7 days before the experiments in Macrolon III cages (20×40×18 cm) with eight mice per cage. Chow and water were available ad libitum, with lights on at 6 a.m. and off at 6 p.m. All behavioral testing was conducted during the light phase. […] All drugs were administered i.p. in saline in a volume of 10 ml/kg. In the tail suspension and locomotor activity experiments drugs were injected 30 min prior to test. The tail suspension test employed was a modified version to that described elsewhere. Mice were suspended individually by the tail using adhesive tape (attached 2 cm from tip of the tail) to a hook attached to a strain gauge and left there for 6 min. The duration of immobility was measured using an automated system (Med Associates, USA) during the 6 min testing period. Tail suspension data were analyzed either using one-way ANOVA (single-drug treatments) or two-way ANOVA (paroxetine/5-HTP and citalopram/5-HTP) with Dunnets post-hoc test. Locomotor activity data were analyzed using two-way ANOVA with Dunnets post-hoc test. Tissue 5-HT data were analyzed using students t-test. Microdialysis 5-HT data were analyzed using two-way repeated measures ANOVA with Dunnets post-hoc test.

brain 5-HT = experiment: Tissue 5-HT in frontal cortex and hippocampus of NMRI mice (HPLC-EC); details: acute administration
Description: (§1) Male NMRI and C57Bl/6j mice (Taconic Europe, St. Laven, DK) weighing 25-35 g were housed and habituated for at least 7 days before the experiments in Macrolon III cages (20×40×18 cm) with eight mice per cage. Chow and water were available ad libitum, with lights on at 6 a.m. and off at 6 p.m. All behavioral testing was conducted during the light phase.
Fluoxetine HCl, desipramine HCL, 5-hydroxytryptamine, citalopram HBr, paroxetine HCl, reboxetine fumarate and duloxetine oxalate. All drugs were administered i.p. in saline in a volume of 10 ml/kg. In the tail suspension and locomotor activity experiments drugs were injected 30 min prior to test.
Mice killed by cervical dislocation and the frontal cortex and hippocampus rapidly dissected, frozen on dry ice and stored at −80° C. until analysis by HPLC-EC.
(§2) 5-HT in tissue and microdialysis samples were analysed using HPLC-EC as previously described in Weikop P et al.; Eur Neuropsychopharmacol 2007; 17:658-671.
(§3) Tail suspension data were analyzed either using one-way ANOVA (single-drug treatments) or two-way ANOVA (paroxetine/5-HTP and citalopram/5-HTP) with Dunnets post-hoc test. Locomotor activity data were analyzed using two-way ANOVA with Dunnets post-hoc test. Tissue 5-HT data were analyzed using students t-test. Microdialysis 5-HT data were analyzed using two-way repeated measures ANOVA with Dunnets post-hoc test.

extracellular 5-HT = experiment: Microdialysis of extracellular 5-HT in frontal cortex, NMRI mice; details: citalopram 20 mg/kg, 5-HTP 12.5 mg/kg
Description: as §1
Microdialysis were performed in freely moving mice as previously described in Jacobsen J P et al.; Neuroscience 2005; 132:1055-1072. The flowrate was 1 ul/min and 20 min samples were collected. Four baseline samples were collected whereafter saline, 5-HTP (12.5 mg/kg), citalopram (20 mg/kg) or citalopram+5-HTP were injected and six additional samples where collected. Samples were collected on ice, immediatedly frozen on dry ice and stored at −80° C. until analysis by HPLC-EC.
as §2, §3

C57Bl/6j mice = experiment: Tail suspension test in C57 mice; details: single drug i.p. 30 min prior to test, 6 min test
Excerpt: Drug candidates can be screened for antidepressant-like activity by using animal models. In the tail suspension test the mouse is suspended by its tail. The mouse will initially move and struggle but will with time become increasingly immobile. Pretreatment with a clinically effective antidepressant decreases the time spent immobile. This includes selective serotonin re-uptake inhibitors (SSRIs) and drugs inhibiting the noradrenaline reuptake mechanism, as well as some putative antidepressants with non-monoamine pharmacology. […] In animal models of depression, including the tail suspension test, mouse strains differ considerably in their responsiveness to antidepressants. […]
The tail suspension test employed was a modified version to that described elsewhere. […] The duration of immobility was measured using an automated system (Med Associates, USA) during the 6 min testing period.
as §3

Row | Compound | immobility in tail suspension test (NMRI mice) | immobility in tail suspension test (C57Bl/6j mice) | further results
1 | N[C@@H](Cc1c[nH]c2ccc(O)cc12)C(=O)O [5-HTP, 5-hydroxytryptophan] | did not affect immobility |  | 5-HT levels ± sem, Frontal Cortex (brain 5-HT; frontal cortex tissue): 122 ± 3.3 % of saline; 5-HT levels ± sem, Hippocampus (brain 5-HT; hippocampus tissue): 83.4 ± 2.6 % of saline; decrease of tissue 5-HT in the hippocampus (brain 5-HT; vs saline): 17%; increase of tissue 5-HT in the frontal cortex (brain 5-HT; vs saline): 22%; increase in extracellular 5-HT in the frontal cortex (extracellular 5-HT): only a modest increase
2 | CNCCCN1c2ccccc2CCc2ccccc21 [desipramine] | reduced immobility | decreased immobility | 
3 | CNCC[C@H](Oc1cccc2ccccc12)c1cccs1 [duloxetine] | reduced immobility |  | 
4 | CNCCC(Oc1ccc(C(F)(F)F)cc1)c1ccccc1 (stereo not shown) [fluoxetine] | without effect |  | 
5 | Fc1ccc([C@@H]2CCNC[C@H]2COc2ccc3c(c2)OCO3)cc1 [paroxetine] | without effect |  | 
6 | CCOc1ccccc1OC(c1ccccc1)C1CNCCO1 (stereo not shown) [reboxetine] | reduced immobility | decreased immobility | 
